Results from article PMC7665585, “Antidepressive effect of an inward rectifier K^+ channel blocker peptide, tertiapin-RQ” (PLoS ONE, 2020).
Bridge positions count the residues as written; N and C are the ends. Peptide text beside a SMILES is read from it.

target: T1, rat ROMK (Rattus norvegicus, UniProt P35560); assay: Whole-cell patch-clamp of ROMK currents in 208–4 cells; type: cell-based; details: blockade at 1 μM estimated from fitted Hill curve (four parameters), whole-cell conductance, n = 3–6, read-out: Activity (ROMK channel blocking activity, percentage of blockade at 1 μM)
T1 construct: expressed in transfected cells; host or cells: 293T cell line 208-4 (lentiviral transduction, GFP coexpressed)
T1 sequence (P35560 1-391): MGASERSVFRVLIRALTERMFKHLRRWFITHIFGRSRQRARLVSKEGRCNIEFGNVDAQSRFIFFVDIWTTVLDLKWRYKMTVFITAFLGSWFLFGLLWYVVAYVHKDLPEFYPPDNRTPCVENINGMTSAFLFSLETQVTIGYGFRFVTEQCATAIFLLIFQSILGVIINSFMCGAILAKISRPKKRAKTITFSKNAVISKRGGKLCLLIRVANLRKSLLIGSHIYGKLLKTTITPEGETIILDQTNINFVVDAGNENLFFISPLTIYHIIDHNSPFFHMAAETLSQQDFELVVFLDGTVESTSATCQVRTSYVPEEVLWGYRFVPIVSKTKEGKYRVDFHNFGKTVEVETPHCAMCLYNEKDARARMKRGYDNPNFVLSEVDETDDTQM
Source text: The cDNAs for rat ROMK and mouse GIRK1, 2, and 4 were generously donated by Drs Mikio Hayashi (Kansai Medical University) and David Weaver (Vanderbilt University). The ROMK channels were stably expressed by a cell line, 208–4, which was transduced with lentiviral vectors coexpressing the channel and green fluorescent protein (GFP) as described previously. The GIRK genes, cloned in a pCMV6 plasmid (Origene Technologies Inc, Rockville, MD), were transiently expressed in 293T cells with calcium phosphate transfection. GIRK channel currents were recorded 24 h after transfection.
Cells grown on small cover glasses (3 × 18 mm) were placed in a recording chamber. Whole-cell currents were recorded in Tyrode solution using an Axopatch 200B amplifier (Axon Instruments, Foster City, CA) at 25°C. Tyrode solution contained (in mM): NaCl 140, KCl 5.4, NaH2PO4 0.33, CaCl2 2, MgCl2 1, HEPES 5, and glucose 5.5 (pH 7.4 adjusted with NaOH). High K^+ Tyrode solution (KCL 50 mM, NaCl 95 mM, and others were the same as standard Tyrode solution) was used for the recording of GIRK channels. Patch pipettes pulled from borosilicate glass (Narishige, Tokyo, Japan) were filled with an internal solution containing (in mM): K-aspartate 66, KCl 71.5, KH2PO4 1, EGTA 5, HEPES 5, and MgATP 3 (pH 7.4 adjusted with KOH). Recordings were digitized at 10 kHz, and low-pass filtered at 2 kHz. ROMK, Kir2.1, and GIRK currents were evoked with step pulses of 400 msec from -150 mV to 10 mV in 10 mV increments from a holding potential of -70 mV. Whole-cell currents were recorded 60 sec after the peptide application and those from 100 to 300 msec of the step pulses were averaged. Liquid junction potential or capacitive transient was not corrected or compensated. Whole-cell conductance was calculated as the slope of the current-voltage (I-V) relationship from -140 mV to -100 mV and normalized to the initial value (0 μM TPN), in which BaCl2-resistant current was subtracted and indicted as a percentage.

| Compound | inhibition at 1 µM [%] |
| --- | --- |
| CC[C@H](C)[C@@H]1NC(=O)[C@H](CCCNC(=N)N)NC(=O)[C@H](CC(N)=O)NC(=O)[C@@H]2CSSC[C@@H](C(=O)NCC(=O)N[C@@H](CCCCN)C(=O)N[C@@H](CCCCN)C(N)=O)NC(=O)[C@H](CCCCN)NC(=O)[C@H](CCCCN)NC(=O)[C@H](Cc3c[nH]c4ccccc34)NC(=O)[C@H](CSSC[C@H](NC(=O)[C@H](CC(C)C)NC(=O)[C@H](C)N)C(=O)N[C@@H](CC(N)=O)C(=O)N2)NC(=O)[C@H](CCC(N)=O)NC(=O)[C@H](Cc2c[nH]cn2)NC(=O)[C@@H]2CCCN2C1=O [Peptide 52, TPN-RQ(Δ8R/ΔI9)] (H-ALCNCNRIPHQCWKKCGKK-NH2; disulfide 3-12, 5-16) | < 20 |
| CC(C)C[C@H](NC(=O)[C@H](C)N)C(=O)N[C@H]1CSSC[C@@H]2NC(=O)[C@H](CCC(N)=O)NC(=O)[C@H](Cc3c[nH]cn3)NC(=O)[C@@H]3CCCN3C(=O)[C@H](CCCNC(=N)N)NC(=O)[C@H](CCCNC(=N)N)NC(=O)[C@H](CC(N)=O)NC(=O)[C@H](CSSC[C@@H](C(=O)NCC(=O)N[C@@H](CCCCN)C(=O)N[C@@H](CCCCN)C(N)=O)NC(=O)[C@H](CCCCN)NC(=O)[C@H](CCCCN)NC(=O)[C@H](Cc3c[nH]c4ccccc34)NC2=O)NC(=O)[C@H](CC(N)=O)NC1=O [Peptide 53, TPN-RQ(ΔI9/ΔI10)] (H-ALCNCNRRPHQCWKKCGKK-NH2; disulfide 3-12, 5-16) | < 20 |
| CC[C@H](C)[C@@H]1NC(=O)[C@H](CCCNC(=N)N)NC(=O)[C@H](CCCNC(=N)N)NC(=O)[C@H](CC(N)=O)NC(=O)[C@@H]2CSSC[C@@H](C(=O)NCC(=O)N[C@@H](CCCCN)C(=O)N[C@@H](CCCCN)C(N)=O)NC(=O)[C@H](CCCCN)NC(=O)[C@H](CCCCN)NC(=O)[C@H](Cc3c[nH]c4ccccc34)NC(=O)[C@H](CSSC[C@H](NC(=O)[C@H](C)NC(=O)[C@H](C)N)C(=O)N[C@@H](CC(N)=O)C(=O)N2)NC(=O)[C@H](CCC(N)=O)NC(=O)[C@H](Cc2c[nH]cn2)NC(=O)[C@@H]2CCCN2C(=O)[C@H]([C@@H](C)CC)NC1=O [Peptide 55, TPN-RQ(L2A)] (H-AACNCNRRIIPHQCWKKCGKK-NH2; disulfide 3-14, 5-18) | 60 to 80 |
| CC[C@H](C)[C@@H]1NC(=O)[C@H](CCCNC(=N)N)NC(=O)[C@H](CCCNC(=N)N)NC(=O)[C@H](CC(N)=O)NC(=O)[C@@H]2CSSC[C@@H](C(=O)NCC(=O)N[C@@H](CCCCN)C(=O)N[C@@H](CCCCN)C(N)=O)NC(=O)[C@H](CCCCN)NC(=O)[C@H](CCCCN)NC(=O)[C@H](Cc3c[nH]c4ccccc34)NC(=O)[C@H](CSSC[C@H](NC(=O)[C@H](CC(C)C)NC(=O)[C@H](C)N)C(=O)N[C@@H](C)C(=O)N2)NC(=O)[C@H](CCC(N)=O)NC(=O)[C@H](Cc2c[nH]cn2)NC(=O)[C@@H]2CCCN2C(=O)[C@H]([C@@H](C)CC)NC1=O [Peptide 56, TPN-RQ(N4A)] (H-ALCACNRRIIPHQCWKKCGKK-NH2; disulfide 3-14, 5-18) | 60 to 80 |
| CC[C@H](C)[C@@H]1NC(=O)[C@H](CCCNC(=N)N)NC(=O)[C@H](CCCNC(=N)N)NC(=O)[C@H](C)NC(=O)[C@@H]2CSSC[C@@H](C(=O)NCC(=O)N[C@@H](CCCCN)C(=O)N[C@@H](CCCCN)C(N)=O)NC(=O)[C@H](CCCCN)NC(=O)[C@H](CCCCN)NC(=O)[C@H](Cc3c[nH]c4ccccc34)NC(=O)[C@H](CSSC[C@H](NC(=O)[C@H](CC(C)C)NC(=O)[C@H](C)N)C(=O)N[C@@H](CC(N)=O)C(=O)N2)NC(=O)[C@H](CCC(N)=O)NC(=O)[C@H](Cc2c[nH]cn2)NC(=O)[C@@H]2CCCN2C(=O)[C@H]([C@@H](C)CC)NC1=O [Peptide 57, TPN-RQ(N6A)] (H-ALCNCARRIIPHQCWKKCGKK-NH2; disulfide 3-14, 5-18) | 60 to 80 |
